{"source": "patent US20220193209A1", "about": "“COMPOSITIONS AND METHODS FOR REACTIVATING LATENT IMMUNODEFICIENCY VIRUS AND/OR TREATING IMMUNODEFICIENCY VIRUS INFECTION” (The J. David Gladstone institutes, a testamentary trust …, priority 2019, published 2022)", "key": {"Smyd2": {"target": "Smyd2 (Homo sapiens, UniProt Q9NRG4)", "sequence (Q9NRG4 whole entry, species assumed)": "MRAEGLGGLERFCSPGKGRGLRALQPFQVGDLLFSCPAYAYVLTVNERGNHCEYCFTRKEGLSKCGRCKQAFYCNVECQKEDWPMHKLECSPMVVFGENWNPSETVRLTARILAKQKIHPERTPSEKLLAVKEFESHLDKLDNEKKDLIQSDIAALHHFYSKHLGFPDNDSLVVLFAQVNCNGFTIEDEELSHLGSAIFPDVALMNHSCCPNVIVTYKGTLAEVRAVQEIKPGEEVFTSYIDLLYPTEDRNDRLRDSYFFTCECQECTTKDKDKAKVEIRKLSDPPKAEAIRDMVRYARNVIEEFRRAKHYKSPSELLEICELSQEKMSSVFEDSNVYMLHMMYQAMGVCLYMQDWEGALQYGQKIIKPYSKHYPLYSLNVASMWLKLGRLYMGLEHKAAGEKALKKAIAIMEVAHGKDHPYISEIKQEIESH", "settings": "SMYD2, substrate competitive; cited from earlier work"}, "[1]": {"tested_on": "latent HIV-1 provirus in J-Lat cells", "assay": "HIV-GFP reactivation in J-Lat cell lines (RT-qPCR, FACS)", "format": "cell-based", "settings": "for effect on TNFα-mediated HIV reactivation: with 10 ng/mL TNFα (24 h); for effect on AS1842856-induced HIV reactivation: with 1000 nM AS1842856 (72 h); for HIV-1 reactivation (HIV-GFP): ER stress inducers, 24, 48 and 72 h", "experimental": "Total RNA from samples was extracted using the Direct-zol RNA kit (R2060; Zymogen). cDNA was generated using 500 ng for CD4^+ T cells or 1000 ng of total RNA for J-Lats with Superscript III Reverse transcription (18080-044; ThermoFisher) and oligo(dT) (18418-012; ThermoFisher). Quantitative RT-PCR was carried out using Maxima SYBR Green qPCR Master Mix (Thermo Scientific) on SDS 2.4 software (Applied Biosystems) in a total volume of 12 μL. The SYBR green qPCR reactions contained 5 μl of 2× Maxima SYBR green/Rox qPCR Master Mix (K0221; ThermoFisher), 5 μl of diluted cDNA, and 1 nmol of both forward and reverse primers. The reactions were run using the following conditions: 50° C. for 2 min and 95° C. for 10 min, followed by 40 cycles of 95° C. for 5 s and 62° C. for 30 s. See Table 1 below for a qRT-PCR primer list. […] Dissociation curve analysis was performed after the end of the PCR to confirm the presence of a single and specific product. All qPCRs were independently repeated at least three times, averaged and compared using standard deviation (±SD).\nThe J-Lat clonal cell lines are Jurkat cells that contain a stably integrated, latent HIV-1 (HXB) Δenv provirus with a GFP reporter gene in place of the nef gene (Jordan, A. et al. EMBO J. 22, 1868-1877 (2003)). In this system, reactivation from established latency can be monitored through GFP expression.\nHIV-GFP mRNA reactivation was assessed by RT-qPCR and normalized to RPL13A mRNA. Data represent average SD of three independent experiments. p-value relative to the control at each time point. FIG. 3, Panel B, depicts cell viability assessed by flow cytometry at 72 h of the same experiment as in A. Cell viability was measured by gating on both the live population at the forward scatter (FSC) and side scatter (SSC) plot and then the viable cells after staining with the viability dye. […] HIV-GFP reactivation (bars) and cell viability (dots) were analyzed by FACS. HIV-GFP reactivation is reported as a percentage of GFP-expressing cells (% GFP+ cells). Data represent average f SD of at least three independent experiments. FIG. 3, Panel D, depicts the same experiments as in FIG. 3, Panel C, but performed in different J-Lat cell lines 5A8, 6.3, 11.1 and 15.4. Data represent average f SD of at least three independent experiments. 10 ng/mL TNFα was used as control. […] Calculation of synergy for drug combinations using the Bliss independence model applied to the HIV-GFP reactivation measured as a percentage of GFP-expressing cells (% GFP+ cells).\nChromatin was prepared from J-Lat A2 and 5A8 cells, in which the LTR was stimulated by 1000 nM AS1842856 treatment, TNFα or which were left untreated/DMSO. […] HIV-GFP reactivation was analyzed by FACS and relativized to the control condition. […] Data represent average SD of 3-6 independent experiments. […] HIV-GFP reactivation was analyzed by FACS. […] HIV-GFP reactivation and cell viability were analyzed by FACS. Data were mean±SD of three independent experiments."}, "J-Lat cells": {"tested_on": "J-Lat cells", "assay": "Cell viability of J-Lat cells by flow cytometry", "format": "cell-based", "settings": "J-Lat", "experimental": "FIG. 3, Panel A, depicts results of treatment of a J-Lat cell line 5A8 with increasing concentrations (1-10000 nM) of AS1842856 for 24, 48 and 72 h. HIV-GFP mRNA reactivation was assessed by RT-qPCR and normalized to RPL13A mRNA. Data represent average SD of three independent experiments. p-value relative to the control at each time point. FIG. 3, Panel B, depicts cell viability assessed by flow cytometry at 72 h of the same experiment as in A. Cell viability was measured by gating on both the live population at the forward scatter (FSC) and side scatter (SSC) plot and then the viable cells after staining with the viability dye. FIG. 3, Panel C, depicts results of treatment of J-Lat cell lines A2 and A72 with increasing concentrations of AS1842856 for 24, 48 and 72 h. HIV-GFP reactivation (bars) and cell viability (dots) were analyzed by FACS. HIV-GFP reactivation is reported as a percentage of GFP-expressing cells (% GFP+ cells). Data represent average f SD of at least three independent experiments. FIG. 3, Panel D, depicts the same experiments as in FIG. 3, Panel C, but performed in different J-Lat cell lines 5A8, 6.3, 11.1 and 15.4. Data represent average f SD of at least three independent experiments. 10 ng/mL TNFα was used as control. FIG. 3 Panel E depicts results of treatment of J-Lat cell lines 5A8, 6.3, 11.1 and 15.4 for 72 h with increasing concentrations of both AS1842856 (Y-axis) and TNFα (X-axis) alone or in combination and analyzed by FACS. Calculation of synergy for drug combinations using the Bliss independence model applied to the HIV-GFP reactivation measured as a percentage of GFP-expressing cells (% GFP+ cells).\nFIG. 10, Panels A-F depict results of a J-Lat cell line 5A8 treated with different concentrations of inhibitors. FIG. 10, Panel A, depicts results for a J-Lat cell line A58 that was treated with increasing concentrations of A-92 (GCN2 inhibitor) in combination with 1000 nM AS1842856 (72 h) or 10 ng/mL TNFα (24 h). HIV-GFP reactivation was analyzed by FACS and relativized to the control condition. Histogram plots of percent live cells for each drug treatment are shown. FIG. 10, Panel B, depicts the same experiment as in FIG. 10, Panel A, but cells were treated with increasing concentrations of PKR inhibitor (PKRi). Histogram plots representing viability are also shown. Data are represented by mean±SD of three different […]. […] FIG. 10, Panel D, depicts a J-Lat cell line A58 that was treated with increasing concentrations of Ionomycin (0.01, 0.1, 0.5, 1 μM) for 24, 48 and 72 hr. HIV-GFP reactivation and cell viability were analyzed by FACS. FIG. 10, Panel E, depicts a J-Lat cell line 5A8 that was treated for 72 h with increasing concentrations of both Fenretinide (Y-axis) and Ionomycin (X-axis) alone or in combination and analyzed by FACS. HIV-GFP reactivation is reported as a percentage of GFP-expressing cells (% GFP+ cells). FIG. 10, Panel F, depicts a J-Lat cell line 5A8 that was also treated for 72 h with increasing concentrations of both Thapsigargin (Y-axis) and Cyclosporin A (X-axis) alone or in combination and analyzed by FACS. HIV-GFP reactivation is again reported as a percentage of GFP-expressing cells (% GFP+ cells)."}, "HIV LTR": {"tested_on": "HIV LTR", "assay": "Chromatin immunoprecipitation (ChIP) at the HIV LTR in J-Lat cells", "format": "cell-based, HIV-1", "experimental": "J-Lat A2 and A72 cells were treated with TNFα (10 ng/ml) for 18 h. Cells were fixed with 1% formaldehyde (v/v) in fixation buffer (1 mM EDTA, 0.5 mM EGTA, 50 mM Hepes, pH 8.0, 100 mM NaCl), and fixation was stopped after 10 min by addition of glycine to 125 mM. The cell membrane was lysed for 15 min on ice (5 mM Pipes, pH 8.0, 85 mM KCl, 0.5% NP40, protease inhibitors). After washing with nuclear swell buffer (25 mM HEPES, pH 7.5, 4 mM KCl, 1 Mm DTT, 0.5% NP-40, 0.5 mM PMSF) and micrococcal nuclease (MNase) digestion buffer (20 mM Tris pH 7.5, 2.5 mM CaCl2), 5 mM NaCl, 1 mM DTT, 0.5% NP-40), the pellet was resuspended in MNase buffer (15 mM Tris-HCl, pH 7.5, 5 mM MgCl2, 1 mM CaCl2), and 25 mM NaCl). Subsequently, samples were incubated with MNase (New England Biolabs) for 10 min at RT. The reaction was quenched with 0.5 M EDTA and incubated on ice for 5 min. Cells were lysed (1% SDS, 10 mM EDTA, 50 mM Tris-HCl, pH 8.1, protease inhibitors), and chromatin DNA was sheared to 200-1000-bp average size through sonication (Ultrasonic Processor CP-130, Cole Parmer). Cellular debris was pelleted, and the supernatant was recovered. Protein A/G Sepharose beads were blocked with single-stranded salmon sperm DNA and BSA, washed and resuspended in immunoprecipitation buffer. Blocked protein A/G Sepharose beads were added to the digested chromatin fractions and rotated at 4° C. for 2 h to preclear chromatin. Lysates were incubated overnight at 4° C. with 5 μg of FOXO1, RelA, histone H4, H4K20me1, H4K20me2, H4K20me3 antibodies, or IgG control. After incubation with protein A/G agarose beads for 2 h and washing three times with low salt buffer (0.1% SDS, 1% Triton X-100, 2 mM EDTA, 20 mM Tris-HCl, pH 8.1, 150 mM NaCl), one time with high salt buffer (0.1% SDS, 1% Triton X-100, 2 mM EDTA, 20 mM Tris-HCl, pH 8.1, 500 mM NaCl) and twice with TE-buffer (1 mM EDTA, 10 mM Tris-HCl, pH 8.1), chromatin was eluted and recovered with Agencourt AMPure XP beads (Beckman Coulter). Bound chromatin and input DNA were treated with RNase H (New England Biolabs) and Proteinase K (Sigma-Aldrich) at 37° C. for 30 min. Immunoprecipitated chromatin was quantified by real-time PCR using the Maxima SYBR Green qPCR Master Mix (Thermo Scientific) and the ABI 7700 Sequence Detection System (Applied Biosystems). The SDS 2.4 software (Applied Biosystems) was used for analysis. The specificity of each PCR reaction was confirmed by melting curve analysis using the Dissociation Curve software (Applied Biosystems). All chromatin immunoprecipitations and qPCRs were repeated at least three times, and representative results were shown.\nBecause ATF4 can be recruited to the HIV LTR (Jiang, G. et al. Downloaded from. MBio 8, 1518-1534 (2018)) and the related human T-cell leukemia virus type 1 (HTLV-1) Reddy, T. et al. Oncogene 14, 2785-2792 (1997)), chromatin immunoprecipitation (ChIP) experiments were performed to test whether ATF4 binds the HIV LTR in response to FOXO1 inhibition. While low levels of ATF4 bound HIV LTR chromatin in untreated J-Lat cells, its recruitment was 3-fold enriched after AS1842856 treatment (FIG. 9, Panel A). […] The nuclear factor of activated T cells (NFAT) can occupy the NF-κB binding sites in the HIV LTR, and is activated through calcium mobilization after T cell activation rather than protein kinase C activation as for NF-κB. […]"}}, "data": [{"compound": "N#Cc1cc(C(=O)NCCCN2CCCC2)cc(-c2ccccc2N2CCN(CCc3c[nH]c4ccccc34)CC2)c1", "note": "[AZ391]", "values": [{"measurement": "IC50", "setting": "Smyd2", "value": 62, "unit": "nM"}]}, {"compound": "Cc1cccc(CC(=O)N2CCc3c2ccc(-c2cn(C)c4ncnc(N)c24)c3F)n1", "note": "[PERK inhibitor]", "values": [{"measurement": "effect on TNFα-mediated HIV reactivation", "setting": "[1]; J-Lat", "value": "not affected"}, {"measurement": "suppression of AS1842856-mediated HIV reactivation", "setting": "[1]; J-Lat, with 1000 nM AS1842856", "value": "~50", "unit": "%"}, {"measurement": "effect on AS1842856-induced HIV reactivation", "setting": "[1]; J-Lat", "value": "reduced"}]}, {"compound": "C[C@H]1CCC/C=C/[C@@H]2C[C@H](O)C[C@H]2[C@H](O)/C=C/C(=O)O1", "note": "[Brefeldin A]", "values": [{"measurement": "HIV-1 reactivation (HIV-GFP)", "setting": "[1]; J-Lat", "value": "HIV-1 reactivation"}, {"measurement": "cellular toxicity", "setting": "J-Lat cells; ER stress inducers", "value": "dose-dependent levels of cellular toxicity"}]}, {"compound": "O=C1Nc2ccc3ncsc3c2/C1=C/c1cnc[nH]1", "note": "[PKR inhibitor]", "values": [{"measurement": "effect on TNFα-mediated HIV reactivation", "setting": "[1]; J-Lat", "value": "diminished"}, {"measurement": "effect on AS1842856-induced HIV reactivation", "setting": "[1]; J-Lat", "value": "not"}]}, {"compound": "TNFα", "values": [{"measurement": "time of maximal activation", "setting": "[1]; J-Lat 5A8, GFP mRNA", "value": 24, "unit": "h"}, {"measurement": "GFP expression", "setting": "[1]; four J-Lat clonal cell lines, as early as 24 hours", "value": "induced GFP expression"}, {"measurement": "RelA recruitment to the HIV LTR", "setting": "HIV LTR", "value": "significantly enriched"}]}, {"compound": "CC1=C(/C=C/C(C)=C/C=C/C(C)=C/C(=O)Nc2ccc(O)cc2)C(C)(C)CCC1", "note": "[fenretinide]", "values": [{"measurement": "HIV-1 reactivation (HIV-GFP)", "setting": "[1]; J-Lat", "value": "best reactivation"}, {"measurement": "cellular toxicity", "setting": "J-Lat cells; ER stress inducers", "value": "dose-dependent levels of cellular toxicity"}, {"measurement": "cellular toxicity", "setting": "J-Lat cells; fenretinide 0.5 μM, alone or with ionomycin", "value": "nontoxic"}]}, {"compound": "C/C=C(/C)C(=O)O[C@H]1C(C)=C2[C@H]([C@@H]1OC(=O)CCCCCCC)[C@@](C)(OC(C)=O)C[C@H](OC(=O)CCC)[C@@]1(O)[C@H]2OC(=O)[C@@]1(C)O", "note": "[thapsigargin]", "values": [{"measurement": "HIV-1 reactivation (HIV-GFP)", "setting": "[1]; J-Lat", "value": "HIV-1 reactivation"}, {"measurement": "cellular toxicity", "setting": "J-Lat cells; ER stress inducers", "value": "dose-dependent levels of cellular toxicity"}]}]}
